A short description of assay [1]: Antagonist activity at PAR1 in human platelet rich plasma assessed as inhibition of haTRAP-induced platelet aggregation preincubated for 1 hr followed by haTRAP addition measured for 10 mins by spectrophotometric analysis.
The nature of assay [2]: Antagonist activity at PAR1 in washed human platelets assessed as inhibition of haTRAP-induced platelet aggregation preincubated for 1 hr followed by haTRAP addition measured for 10 mins by spectrophotometric analysis.

This note sets out measurements from BindingDB's records for doi:10.1021/ml400235c (Korea Research Institute of Technology, 2013).

pIC50: −log10 of the molar value.

As for `CC1(OC(N)=O)C[C@@H]2CCCC[C@@H]2[C@H]1C=Cc1ccc(-c2cccc(F)c2)cn1` (stereo not given in full), the figures for the pIC50 in assay [1] and in assay [2] were 7.00 and 8.54, respectively. In the case of `CC(=O)N(C)C1C[C@@H]2CCCC[C@@H]2[C@H]1/C=C/c1ccc(-c2cccc(F)c2)cn1` (stereo not given in full), the pIC50 in assay [1] is 5.05; in assay [2], 6.68. On the same counts, the results for `CS(=O)(=O)NC1C[C@@H]2CCCC[C@@H]2[C@H]1/C=C/c1ccc(-c2cccc(F)c2)cn1` (stereo not given in full) are 5.41 and 6.85. On the same counts, the results for `O=C1NCC2(C[C@@H]3CCCC[C@@H]3[C@H]2C=Cc2ccc(-c3cccc(F)c3)cn2)O1` (stereo not given in full) are 6.68 and 8.14. On the same counts, the results for `CN(C1C[C@@H]2CCCC[C@@H]2[C@H]1/C=C/c1ccc(-c2cccc(F)c2)cn1)S(C)(=O)=O` (stereo not given in full) are 7.01 and 8.66. Regarding `Fc1cccc(-c2ccc(/C=C/[C@@H]3[C@H]4CCCC[C@H]4CC34OCCO4)nc2)c1`, the figures for the pIC50 in assay [1] and in assay [2] were 5.39 and 6.39, respectively.

As for `CS(=O)(=O)OC1C[C@@H]2CCCC[C@@H]2[C@H]1/C=C/c1ccc(-c2cccc(F)c2)cn1` (stereo not given in full), in assay [2], the pIC50 is 8.22. On to `CCOC(=O)N[C@@H]1CC[C@@H]2[C@@H](C1)C[C@H]1C(=O)O[C@H](C)[C@H]1[C@H]2C=Cc1ccc(-c2cccc(F)c2)cn1` [Ethyl [(3aR,4aR,8aR,9aS)-9(S)-[(E)-2-[5-(3-fluorophenyl)-2-pyridinyl]ethenyl]dodecahydro-1(R)-methyl-3-oxonaphtho[2,3-c]furan-6(R)-yl]carbamate], for which the values for the pIC50 in assay [1] and in assay [2] were 6.92 and 8.82, respectively.
